tested on: E. coli; experiment: drop test activity screening; format: cell-based
From the text: (§1) The ability of each of the compounds of the invention to impact bacterial growth and viability has been tested. This has been undertaken using a novel drop-test method for initial activity screening, as well as using conventional growth curve analysis methodology. This novel class of antimicrobial agent has shown bactericidal activity against Gram +ve (e.g. S. aureus, Bacillus megaterium) and bacteriostatic activity against Gram −ve isolates (e.g. E. coli).
(§2) The compounds were screened initially by drop testing methods and then by growth rate methods as it was identified that drop testing methods could give false negatives.
Note: key: Y = antibacterial activity; N = No antibacterial activity.

SMILES | drop test activity E. coli
O=S(=O)(O)CCNC(=S)Nc1ccc(C(F)(F)F)cc1 [Compound 4] | N
O=C(NCCCS(=O)(=O)O)Nc1ccc(C(F)(F)F)cc1 [Compound 5] | N
O=S(=O)(O)CCCNC(=S)Nc1ccc(C(F)(F)F)cc1 [Compound 6] | N
COc1ccc(NC(=O)NCS(=O)(=O)O)cc1 [Compound 39] | N
O=C(NCS(=O)(=O)O)Nc1ccccc1 [Compound 40] | N
O=C(NCS(=O)(=O)[O-])Nc1ccc(C(F)(F)F)cc1.[Na+] [Compound 41] | N
O=C(NCS(=O)(=O)[O-])Nc1ccc(C(F)(F)F)cc1.[K+] [Compound 42] | N
O=C(NCS(=O)(=O)O)Nc1cc(C(F)(F)F)cc(C(F)(F)F)c1 [Compound 44] | N
O=C(NCS(=O)(=O)O)Nc1cccc2ccccc12 [Compound 45] | N
CCCCNC(=O)NCS(=O)(=O)O [Compound 46, reference compound] | N
CCCCNC(=S)NCS(=O)(=O)O [Compound 47, reference compound] | N
CCCCNC(=O)NCCS(=O)(=O)O [Compound 48, reference compound] | N
CCCCNC(=S)NCCS(=O)(=O)O [Compound 49, reference compound] | N
CCCCNC(=O)NCCCS(=O)(=O)O [Compound 50, reference compound] | N
CCCCNC(=S)NCCCS(=O)(=O)O [Compound 51, reference compound] | N
O=C(NCS(=O)(=O)O)Nc1ccccc1-c1nc2ccccc2s1 [Compound 54] | N
O=S(=O)(O)CNC(=S)Nc1ccc(C(F)(F)F)cc1 [Compound 63] | N
O=C(NCS(=O)(=O)O)Nc1c(F)c(F)c(F)c(F)c1F [Compound 65] | N

tested on: S. aureus; experiment: drop test activity screening; format: cell-based
From the text: as §1, §2

SMILES | drop test activity S. aureus
O=S(=O)(O)CCNC(=S)Nc1ccc(C(F)(F)F)cc1 [Compound 4] | Y
O=C(NCCCS(=O)(=O)O)Nc1ccc(C(F)(F)F)cc1 [Compound 5] | N
O=S(=O)(O)CCCNC(=S)Nc1ccc(C(F)(F)F)cc1 [Compound 6] | Y
COc1ccc(NC(=O)NCS(=O)(=O)O)cc1 [Compound 39] | N
O=C(NCS(=O)(=O)O)Nc1ccccc1 [Compound 40] | N
O=C(NCS(=O)(=O)[O-])Nc1ccc(C(F)(F)F)cc1.[Na+] [Compound 41] | Y
O=C(NCS(=O)(=O)[O-])Nc1ccc(C(F)(F)F)cc1.[K+] [Compound 42] | N
O=C(NCS(=O)(=O)O)Nc1cc(C(F)(F)F)cc(C(F)(F)F)c1 [Compound 44] | Y
O=C(NCS(=O)(=O)O)Nc1cccc2ccccc12 [Compound 45] | N
CCCCNC(=O)NCS(=O)(=O)O [Compound 46, reference compound] | N
CCCCNC(=S)NCS(=O)(=O)O [Compound 47, reference compound] | N
CCCCNC(=O)NCCS(=O)(=O)O [Compound 48, reference compound] | N
CCCCNC(=S)NCCS(=O)(=O)O [Compound 49, reference compound] | N
CCCCNC(=O)NCCCS(=O)(=O)O [Compound 50, reference compound] | N
CCCCNC(=S)NCCCS(=O)(=O)O [Compound 51, reference compound] | N
O=C(NCS(=O)(=O)O)Nc1ccccc1-c1nc2ccccc2s1 [Compound 54] | N
O=S(=O)(O)CNC(=S)Nc1ccc(C(F)(F)F)cc1 [Compound 63] | N
O=C(NCS(=O)(=O)O)Nc1c(F)c(F)c(F)c(F)c1F [Compound 65] | N

Source: US11701333B2, “Antibacterial compounds” (KENT INNOVATION & ENTERPRISE, priority 2017, dated 2023)
